Values quoted from earlier work, collected in patent US12030986B2, “Sustained release composition using biobased biodegradable hyperbranched polyesters” (CENTRAL MICHIGAN UNIVERSITY, priority 2014, dated 2024).

Row | pKa | SMILES
1 | 1.3 | NC(CS(=O)(=O)O)C(=O)O (stereo not drawn) [cysteic]
2 | 2.1 | C[C@@H](O)[C@H](N)C(=O)O [threonine]
3 | 1.8 | O=P(O)(O)O[C@H]1[C@H](OP(=O)(O)O)[C@@H](OP(=O)(O)O)[C@H](OP(=O)(O)O)[C@@H](OP(=O)(O)O)[C@H]1OP(=O)(O)O [Phytic, phytic acid]
4 | 2.2 | CNCC(=O)O [methlyglycine]
5 | 1.0 | O=C(O)c1ccccn1 [picolinic acid]
6 | 2.4 | CC(=O)C(=O)O [pyruvic]
7 | 2.1 | N[C@@H](CCC(=O)O)C(=O)O [glutamic]
8 | 1.6 | N[C@@H](CCSSCC[C@H](N)C(=O)O)C(=O)O [homocystine]

Row | SMILES | pKa
9 | O=C(O)[C@@H]1C[C@@H](O)CN1 (relative stereo) [trans-4-hydroxyproline] | 1.8
10 | N[C@@H](CC(=O)O)C(=O)O [aspartic] | 2.0
11 | O=C(O)c1cccnc1 [nicotinic] | 2.2
12 | O=C(O)/C=C(/CC(=O)O)C(=O)O [cis-aconitic] | 2.0
